Data on 7 molecules can be found in US7943568B2, “Antitumor agents” (The Ohio State University Research Foundation, priority 2005, dated 2011).

Each structure is given as a SMILES string. “Also recorded” adds a separate entry of the source. Structures can show the parent of a compound that is named as a salt. Where two headings read alike, the source gives them in different places.

For one series, the system named is RBC GSH. Briefly: RBC GSH depletion by DEM pretreatment in the rat. Format: in vivo.
A short description of series [1]: Rat pharmacokinetics of FK228. The series is classed as in vivo. Conditions: for AUC(0-inf) / Cmax / MRT / clearance / Vd: male, Sprague-Dawley, plasma, iv; for clearance: read-out: Cltotal; for Vd: read-out: Vdss. The procedure:
(§1) Pharmacokinetics and tissue distribution studies in the rat Twenty-three male S.D. rates weighing 250-300 g were divided into 5 groups. All rats were cannulated by the left jugular vein under ketamine anesthesia (im, 100 mg/kg) for drug administration and/or blood sampling. The rats were kept in metabolism cages and allowed to recover overnight with food and water given ad libitum. The animal protocols were approved by the Institutional Laboratory Animal Care and Use Committee (ILACUC) of the Ohio State University Laboratory Animal Resources (ULAR), and adhered to the guideline and “Principles of Laboratory Animal Care” by National Institutes of Health (NIH).
(§2) At the time schedule of predose, 5, 10, 20, […], 60, 120, 180, 300 minutes after doing, blood samples of 0.2 mL each were withdrawn from the same cannula with an equal volume of normal saline. Plasma was separated immediately by centrifugation (10,000 g×0.5 min.) extracted with 10-volume ethyl acetate. After centrifugation, the organic layer was transferred into a clean conical Falcon polypropylene tube, and evaporated under a stream of nitrogen. […] Weighed wet organ tissue samples were homogenized in appropriate volumes of blank human plasma with an Ultra-Turrax SDT1610 electric homogenizer (Tekmar, Cincinnati, Ohio) at the highest speed setting for 10 seconds 4 times. […] The homogenates were then extracted and determined as in plasma samples (Chan, et al. 1997; Li and Chan, 2000). Feces samples were homogenized similarly as above. After centrifugation, the supernatant was extracted and determined as plasma samples.
(§3) A 2 mm×50 mm Keystone BetaBasic-C8 column (Keystone, Bellefonte, Pa.) and an isocratic elution were used with the mobile phase consisting of 70% acetonitrile and 0.1% acetic acid at a flow rate of 0.2 mL/min. The flow leaving the HPLC column was split in a ratio of 20:1, with only 10 μL/min. entering the mass spectrometer. All samples were determined by individual calibration curves using specific blank sample matrix. […] While the recoveries from rat muscle and fat samples were further normalized to whole body weight assuming the muscle and fat compose 40 and 4% of the rat total body weight, respectively (Davies and Morris, 1993).

For series [2] the following is noted: i.v. bolus, for 250 g rats; cited from earlier work.
Series [3] can be described thus: In vitro rat blood distribution / RBC uptake of FK228.
Series [4] deals with T1, Pgp (Homo sapiens, UniProt P08183). Conditions: multiple cellular models.
Series [5] is described as follows: Tissue distribution and dose recovery (mass balance) of FK228 in the rat. The series is classed as in vivo. To be noted: for dose excreted: male, Sprague-Dawley, intravenous. The procedure: as §1, §2, §3
Series [6] can be described thus: FK228 stability and protein binding in human plasma. Format: in vitro ADME.
In series [7] the target is multidrug resistant-associated protein 1 (MRP1) (Homo sapiens, UniProt P33527). Conditions: multiple cellular models.
The target of series [8] is T1, Pgp. To be noted: earlier finding; cited from earlier work.
For series [9] the following is noted: patients, 4-hour infusion; cited from earlier work.
The nature of series [10]: Distribution of FK228 and metabolites between plasma and RBC after rat whole blood incubation. Format: in vitro ADME, rat. To be noted: for detection in RBC cytosol / homogenate / detection in plasma fraction: FK228 100 μg/mL, rat whole blood, 37° C., 60 min. The procedure:
After centrifugation, the plasma was removed and the RBC fraction was washed 8 times with 2 mL saline each. […] The RBC debris was further washed with 1 mL acetonitrile each 8 times.
The blood was centrifuged to remove plasma. To the RBC fraction was added blank rat plasma to restore the initial volume, and the mixture was homogenized by a glass tissue grinder (400 strokes). The plasma and RBC homogenates were analyzed by ESI ion-trap LC-MS. A Waters Spherisorb S3 ODS1 column (2 mm ID×10 cm, particle 5 μm, Waters Corporation, Milford, Mass., USA) with a gradient elution was used. The gradient was initiated with 25% acetonitrile in 0.1% acetic acid for 5 minutes, followed by a linear increase to 70% acetonitrile over 5 minutes, which was kept constant for 15 minutes. The mobile phase was then returned linearly to the original condition over 3 minutes, which was then maintained for 7 minutes. The cycle time for each analysis was 35 minutes.

The next series is described as follows: in vitro. Format: in vitro ADME. Conditions: for half-life at 100 μg/mL: rat, plasma; for time to plateau or maximum concentration: FK228 100 μg/mL, 37° C. An excerpt: Serial samples were removed at pre-selected time points up to […]. FK228 and its major metabolites were monitored by ESI LC_MS on the API instrument.
A further series deals with T2, HDAC.
T2 construct: other: n=3; other: relative to FK228
The series is classed as biochemical. To be noted: for IC50: n=3, read-out: IC50, HDAC inhibitory activity; for times more potent as HDAC inhibitors than FK228: relative to FK228. The protocol:
To the plasma was added 2 mL acetonitrile to precipitate the proteins. After centrifugation, the acetonitrile layer was transferred to a clean Falcon polypropylene tube and evaporated to dryness under a stream of nitrogen. […] Their HDAC inhibitory activities were assayed by using the Fluor de Lys HDAC Fluorescent Activity Assay/Drug Discovery Kit (BioMol, Plymouth Meeting, Pa.).

Setting [11] is: 2 mg/kg, I.v. bolus (n = 6), 2 mg/kg.
[12] abbreviates: I.v. bolus with CsA pretreatment (n = 3).
The mark [13] stands for this setting: I.v. bolus with DEM pretreatment (n = 5).
Setting [14] is: after 1 hour whole blood incubation at 37° C.
Where [15] appears, read: rat plasma containing 10 mM GSH.

T1 sequence (P08183 whole entry): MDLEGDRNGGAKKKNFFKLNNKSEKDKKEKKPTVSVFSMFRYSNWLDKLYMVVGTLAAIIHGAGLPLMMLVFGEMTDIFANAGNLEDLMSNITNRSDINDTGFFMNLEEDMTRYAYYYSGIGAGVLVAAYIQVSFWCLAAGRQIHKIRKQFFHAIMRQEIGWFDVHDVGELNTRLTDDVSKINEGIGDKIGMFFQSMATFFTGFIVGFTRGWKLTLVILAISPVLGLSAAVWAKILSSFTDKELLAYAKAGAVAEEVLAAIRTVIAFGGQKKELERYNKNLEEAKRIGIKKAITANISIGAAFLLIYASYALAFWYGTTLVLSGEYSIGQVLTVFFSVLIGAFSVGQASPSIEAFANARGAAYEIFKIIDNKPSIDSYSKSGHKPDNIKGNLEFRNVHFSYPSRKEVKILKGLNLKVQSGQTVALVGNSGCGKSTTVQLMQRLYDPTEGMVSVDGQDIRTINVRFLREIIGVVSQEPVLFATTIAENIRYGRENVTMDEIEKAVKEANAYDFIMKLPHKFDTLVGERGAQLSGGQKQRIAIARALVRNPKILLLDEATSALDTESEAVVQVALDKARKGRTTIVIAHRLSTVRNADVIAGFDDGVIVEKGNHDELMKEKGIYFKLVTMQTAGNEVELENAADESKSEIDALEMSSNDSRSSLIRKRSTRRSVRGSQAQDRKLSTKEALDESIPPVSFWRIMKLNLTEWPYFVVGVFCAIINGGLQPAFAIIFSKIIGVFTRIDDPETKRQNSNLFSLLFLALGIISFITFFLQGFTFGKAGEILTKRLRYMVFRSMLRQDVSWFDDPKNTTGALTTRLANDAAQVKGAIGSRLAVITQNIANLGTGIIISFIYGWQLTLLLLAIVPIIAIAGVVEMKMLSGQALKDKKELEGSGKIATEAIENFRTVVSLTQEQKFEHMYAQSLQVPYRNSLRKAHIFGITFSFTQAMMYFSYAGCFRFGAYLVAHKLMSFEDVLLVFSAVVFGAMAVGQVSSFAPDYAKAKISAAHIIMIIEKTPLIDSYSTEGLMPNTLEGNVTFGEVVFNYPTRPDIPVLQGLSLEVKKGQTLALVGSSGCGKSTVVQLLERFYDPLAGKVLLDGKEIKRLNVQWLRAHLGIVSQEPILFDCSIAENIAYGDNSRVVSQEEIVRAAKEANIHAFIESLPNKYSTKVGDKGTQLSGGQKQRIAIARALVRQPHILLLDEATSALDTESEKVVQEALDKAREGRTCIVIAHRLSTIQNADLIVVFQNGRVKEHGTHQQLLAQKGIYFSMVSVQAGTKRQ
multidrug resistant-associated protein 1 (MRP1), sequence (P33527 whole entry): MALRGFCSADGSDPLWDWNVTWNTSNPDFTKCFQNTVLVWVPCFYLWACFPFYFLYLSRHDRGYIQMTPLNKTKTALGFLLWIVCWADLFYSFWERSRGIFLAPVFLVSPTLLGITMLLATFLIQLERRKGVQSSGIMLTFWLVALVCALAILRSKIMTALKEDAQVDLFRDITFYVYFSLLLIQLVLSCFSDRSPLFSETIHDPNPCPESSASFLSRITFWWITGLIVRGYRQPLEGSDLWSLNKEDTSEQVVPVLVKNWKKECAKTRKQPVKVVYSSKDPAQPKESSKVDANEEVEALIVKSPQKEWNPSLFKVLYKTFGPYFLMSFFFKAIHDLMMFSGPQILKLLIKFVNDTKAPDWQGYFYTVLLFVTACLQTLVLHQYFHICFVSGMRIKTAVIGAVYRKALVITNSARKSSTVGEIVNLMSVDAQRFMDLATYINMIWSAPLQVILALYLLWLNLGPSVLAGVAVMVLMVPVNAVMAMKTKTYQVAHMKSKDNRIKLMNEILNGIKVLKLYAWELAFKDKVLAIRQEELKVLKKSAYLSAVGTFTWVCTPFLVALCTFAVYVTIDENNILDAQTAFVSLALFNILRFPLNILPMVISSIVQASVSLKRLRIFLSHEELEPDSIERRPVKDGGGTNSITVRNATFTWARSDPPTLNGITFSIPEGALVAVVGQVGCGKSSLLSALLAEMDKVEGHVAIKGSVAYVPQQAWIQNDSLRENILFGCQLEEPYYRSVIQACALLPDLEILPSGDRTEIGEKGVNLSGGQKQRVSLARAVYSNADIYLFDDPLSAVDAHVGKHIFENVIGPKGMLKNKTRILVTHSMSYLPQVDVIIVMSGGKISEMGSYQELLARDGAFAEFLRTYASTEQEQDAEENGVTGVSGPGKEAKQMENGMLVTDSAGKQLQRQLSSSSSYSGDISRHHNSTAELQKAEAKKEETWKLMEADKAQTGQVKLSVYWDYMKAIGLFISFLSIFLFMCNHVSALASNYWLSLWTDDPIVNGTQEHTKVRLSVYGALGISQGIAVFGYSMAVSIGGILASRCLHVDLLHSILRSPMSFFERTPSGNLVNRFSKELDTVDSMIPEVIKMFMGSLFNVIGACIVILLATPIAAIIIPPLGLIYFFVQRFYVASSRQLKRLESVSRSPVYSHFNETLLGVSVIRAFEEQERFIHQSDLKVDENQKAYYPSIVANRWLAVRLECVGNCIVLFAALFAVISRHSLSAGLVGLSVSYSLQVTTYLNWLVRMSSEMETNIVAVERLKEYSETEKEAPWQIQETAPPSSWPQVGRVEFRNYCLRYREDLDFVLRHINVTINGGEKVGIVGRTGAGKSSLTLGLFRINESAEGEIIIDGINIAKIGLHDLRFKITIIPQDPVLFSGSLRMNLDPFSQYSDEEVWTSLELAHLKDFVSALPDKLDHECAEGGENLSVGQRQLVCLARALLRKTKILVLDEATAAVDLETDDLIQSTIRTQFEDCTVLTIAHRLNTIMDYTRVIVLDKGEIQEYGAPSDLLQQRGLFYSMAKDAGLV

Regarding `CCOC(=O)/C=C\C(=O)OCC` [DEM, diethyl maleate], the “depletion of RBC GSH” value with RBC GSH was 50%.

Broadly, the AUC(0-inf) is total exposure, with the tail of the curve extrapolated. As usually defined, the Cmax is the peak of the concentration-time curve. Broadly, the MRT is a mean duration of stay, worked out from the concentration-time curve. For the molecule `C/C=C1\NC(=O)[C@H]2CSSCC/C=C/[C@H](CC(=O)N[C@H](C(C)C)C(=O)N2)OC(=O)[C@H](C(C)C)NC1=O` [FK228, (E)-(1S,4S,10S,21R)-7-[(Z)-ethylidene]-4,21-diisopropyl-2-oxz-12,13-dithia-5,8,20,23-tetraazabicyclo[8,7,6]-tricos-16ene-3,6,9,19,22-pentanone], the “plasma FK228 concentrations” value in series [1] (following i.v. infusion) is less than 20 nM. The AUC(0-inf) in series [1] (2 mg/kg, I.v. bolus (n = 6)) was 0.0683 µM·h; in [1] (setting [12]) it was 0.0667 µM·h; in series [1] (setting [13]), 0.0903 µM·h; in series [1] (I.v. infusion (n = 6)), 0.103 µM·h. Besides, the highest concentration (Cmax) in series [1] (2 mg/kg, I.v. bolus (n = 6)) amounted to 490 ± 164 nM; in series [1] (2 mg/kg, I.v. infusion (n = 6)), 25.3 ± 3.7 nM; in [1] (setting [12]) it was 548 ± 249 nM; in series [1] (I.v. bolus with DEM pretreatment (n = 5), called C0 in text), 1180 ± 637 nM. The mean residence time MRT is 36.3 min in series [1] (2 mg/kg, I.v. bolus (n = 6)); 17.7 min in series [1] (2 mg/kg, I.v. infusion (n = 6)); 27 min in series [1] (setting [12]); 30 min in series [1] (setting [13]). For the same molecule, the clearance in series [1] (setting [11]) is 237 ± 58 mL/min; in series [1] (setting [12]) it was 249 ± 18 mL/min; in [1] (setting [13]), 276 ± 152 mL/min; in series [1] (I.v. infusion (n = 6)), 179 ± 27.5 mL/min. For the same molecule, the Vd in series [1] (setting [11]) worked out at 32.7 ± 4.51 L/kg; in [1] (2 mg/kg, I.v. infusion (n = 6)), 10.8 ± 2.7 L/kg; in series [1] (setting [12]), 29 ± 3.2 L/kg; in series [1] (setting [13]), 22.4 ± 13 L/kg; in [1] (I.v. infusion (n = 6)), 11.8 ± 2.7 L/kg. Further, the distribution volume in [2] is 22.3 ± 7.3 L/kg. Moreover, the total body clearance in [2] was 425.3 ± 117.7 mL/min. In addition, in series [3] (male, Sprague-Dawley, rat, fresh heparinized whole blood), the recovery at 1 h, 10 μg/mL was less than 35%. Besides, in series [3] (rat blood at 37° C., within 2 minutes, 0.1-10 μg/mL), the “plasma FK228 remaining” value is recorded as “over 20%”. Also, the Pgp substrate entry on Pgp [4] is listed as “substrate”. Further, in series [5], the “total amount of FK228 in 24-hour urine and 6-hour bile” value was “less than 11 % of the dose”. For the same molecule, the “total recovery of intact FK228 from 9 major organ tissues” value in [5] (6 hours) is recorded as 2.5±1.26%; in [5] (24 hours) it was 0.56±0.3%. For the same molecule, the dose excreted in series [5] (bile, n=3, read-out: dose recovery from 6 hour bile) is 4.76 ± 0.34%; in series [5] (urine, 2 mg/kg, n=6, read-out: dose recovery from 24 hour urine) it was 5.9 ± 1.6%. The “binding to plasma proteins” value in [6] is “over 90%”. In series [6], the stability entry is “stable”. Further, in series [7], the MRP1 substrate result is “substrate”. Moreover, on Pgp [8], the P-glycoprotein substrate result is on record as “substrate”. In series [9], the “maximum tolerated dose (MTD)” value is 17.8 mg/m^2.

For orientation: IC50 means the midpoint of a concentration-inhibition curve. Take `C/C=C1\NC(=O)C(CS)NC(=O)C(C(C)C)NC(=O)CC(/C=C/CCS)OC(=O)C(C(C)C)NC1=O` (centres unmarked) [metabolite A]: in [10], the “fate in rat RBC” value is “pumped out of rat RBC”. In the series “in vitro”, the half-life at 100 μg/mL is 18.5 min. Moreover, in the series on HDAC, the concentration for half-maximal inhibition (IC50) worked out at 1.65 ± 0.24 nM and the “times more potent as HDAC inhibitors than FK228” value is on record as “at least 46 times”.

`CC(C)C1NC(=O)CC(/C=C/CCS)OC(=O)C(C(C)C)NC(=O)C2NC(=O)C(CSC2C)NC1=O` (centres unmarked) [metabolite B]: in series [10], the “detection in RBC cytosol / homogenate” value is listed as “detected” and the “detection in plasma fraction” value was “detected”. In addition, the “fate in rat RBC” value in series [10] (setting [14]) is on record as “remained in rat RBC”. In the series “in vitro” (rat plasma containing 10 mM GSH, in words), the stability of metabolite result is listed as “instable”. For the same molecule, the half-life at 100 μg/mL in “in vitro” (read-out: terminal half life) was 14.4 min. Also, in the series with HDAC, the 50% inhibitory concentration (IC50) is 0.94 ± 0.14 nM and the “times more potent as HDAC inhibitors than FK228” value is recorded as no less than 82 times.

As to `CC(C)C1NC(=O)CC(/C=C\CCSSCC(NC(=O)CCC(N)C(=O)O)C(=O)NCC(=O)O)OC(=O)C(C(C)C)NC(=O)C2NC(=O)C(CSC2C)NC1=O` (centres unmarked) [metabolite D], in series [10], the “detection in RBC cytosol / homogenate” value is reported as “detected” and the “detection in plasma fraction” value is listed as “detected”. In addition, the “fate in rat RBC” value in [10] (setting [14]) is recorded as “remained in rat RBC”. For the same molecule, in the series “in vitro” (setting [15]), the “time to plateau or maximum concentration” value amounted to 1 h. Besides, the IC50 in the series with HDAC was 15.9 ± 2.7 nM.

For the molecule `CC(C)C1NC(=O)CC2/C=C/CCSSCC(NC1=O)C(=O)NC(C(C)SCC(NC(=O)CCC(N)C(=O)O)C(=O)NCC(=O)O)C(=O)NC(C(C)C)C(=O)O2` (centres unmarked) [metabolite E], in series [10], the “detection in RBC cytosol / homogenate” value is recorded as “detected; also recorded: minor peak” and the “detection in plasma fraction” value was “minor peak”. The “time to plateau or maximum concentration” value in “in vitro” (setting [15]) is 2 h.

With `CC(C)C1NC(=O)CC(/C=C/CCS)OC(=O)C(C(C)C)NC2(O)SCC(NC1=O)C(=O)NC2C(C)SCC(NC(=O)CCC(N)C(=O)O)C(=O)NCC(=O)O` (centres unmarked) [metabolite F], the “detection in plasma fraction” value in series [10] is on record as “detected”. Moreover, the “fate in rat RBC” value in [10] (setting [14]) is “pumped out of rat RBC”.
